Measured values reported in PMC8419995, “In vitro and in vivo efficacy of thiacloprid against Echinococcus multilocularis” (Parasites & Vectors, 2021).
Like-named read-outs stand apart in the source and are kept apart here.

Assays:
[1] = tested on: collagen I and III, MMP1, MMP3, MMP9, MMP13; assay: Collagen and MMP expression in the host-lesion microenvironment (TEM, Sirius red, qPCR, western blot); assay type: in vivo; conditions: infected BALB/c mice, 6 weeks oral treatment
Procedure: The metacestodes were fixed with 4% paraformaldehyde and embedded in paraffin to make sections with a thickness of […]. The sections were dewaxed with water, stained with Picrosirius red for 10 min, rinsed and dehydrated with anhydrous ethanol, and sealed with neutral balsam after the xylene was transparent. Each section of 400× visual field image was randomly collected. The ratio of the area of all images collected to the area of the visual field was measured using the ImageJ analysis system, and the percentage of collagen fibre was calculated.
The variations in the microstructure of the protoscoleces or metacestodes were observed under an electron microscope. […] They were washed twice in PBS and then fixed for 3 h with 2.5% glutaraldehyde (pH = 7.2); next, they underwent 2 h post-fixation in 2% OsO4 (SPI-CHEM, West Chester, PA, USA). Subsequently, the samples were washed in double-distilled water and treated with 1% uranyl acetate for 25 min. After the samples were washed again in double-distilled water, dehydration was conducted in ethanol at continuous gradients (30–50–70–80–90–95–100%) over a period of 10 min. For SEM analysis, the dehydrated samples were dipped into hexamethyldisiloxane and then air-dried in a fume hood. The sample was observed under a Hitachi SU8100 scanning electron microscope (Tokyo, Japan) after gold spraying. For TEM analysis, the dehydrated samples passed through a dehydrating agent, and an epoxy resin (SPI-CHEM) permeated and polymerized at 60 °C overnight. A 50-nm ultra-thin section was prepared and then loaded on a 300-mesh copper grid. It was stained with uranyl acetate and lead citrate (SPI-CHEM). The sample was observed under a Hitachi HT7700 transmission electron microscope. To reduce the bias, electron microscopy was observed by professionals in the case of an unknown group.
Total RNA was extracted with TRIzol Reagent (Thermo Fisher Scientific, Waltham, MA, USA) according to the manufacturer’s instructions. The purity and concentrations of RNA were quantified using NanoDrop 2000 absorbance measurements at 260/280 nm. Total RNA was converted into cDNA sequences using the FastKing gDNA Dispelling RT SuperMix Kit (TIANGEN Biotech), and RT-qPCR was performed using the RealUniversal Color PreMix Kit (TIANGEN Biotech) on an ABI QuantStudio 5 system (Applied Biosystems, Waltham, MA, USA). The specific primers are shown in Additional file 4: Table S1. The PCR cycling conditions were as follows: pre-denaturation at 95 °C for 15 min followed by 40 cycles at 95 °C for 10 s and 60 °C for 34 s. The relative mRNA expression levels were quantified using the 2^−ΔΔCT method. RPS18 served as an internal control.
A total protein extraction kit (Solarbio) was used to extract cell or tissue total protein. The protein concentration was determined by the protein quantitative assay kit (Thermo Fisher Scientific). Then, electrophoresis was performed with 20–50 μg of protein sample. The protein was separated by sodium dodecyl sulfate polyacrylamide gel electrophoresis (SDS-PAGE) and transferred to a 0.22 μm PVDF membrane (Merck Millipore, Darmstadt, Germany). The PVDF membrane was blocked with 5% of nonfat powdered milk in Tris-buffered saline Tween 20 (TBST) for 1 h at room temperature. The membrane incubation with primary antibodies was performed at 4 °C overnight. The antibody information is listed in Additional file 5: Table S2. The membrane was washed with TBST and incubated with HRP-labeled secondary antibodies (1:5000, Abclonal, Wuhan, China) for 1 h at room temperature. Blotted membranes were visualized using enhanced chemiluminescence reagents (Thermo Fisher Scientific). Protein expression was depicted as the intensity of each protein relative to that of β-actin using ImageJ software.

[2] = tested on: IL-2, IL-4, IL-10 and IgE; assay: ELISA of cytokines and IgE in infected mice; assay type: in vivo; conditions: infected BALB/c mice, 6 weeks oral treatment
Procedure: (§1) In vitro-grown metacestode vesicles were pressed through a 500 µm mesh and washed three times with sterile PBS. The parasite tissue was then taken up in an equal volume of sterile PBS. Each mouse was intraperitoneally injected with 200 μl suspension. Seven mice were injected with 200 μl PBS as the control group. Twenty-eight infected mice were randomly distributed into four groups (7 mice/group): the untreated group was not administered any drug; the ABZ group was treated with ABZ orally (100 mg/kg/day); and the Thia15 group and Thia30 group received thiacloprid orally (15 mg/kg/day and 30 mg/kg/day). Treatments of mice started 2 weeks post-infection, and treatments were administered daily for 6 weeks. After 6 weeks of treatment, whole blood via the orbital sinus was collected from mice and the animals were euthanized by CO2. Blood samples were incubated at 37 °C for 1 h and centrifuged at 3500 rpm for 10 min at 4 °C. The serum was harvested and stored at –20 °C for IL-2, IL-4, IL-10 and IgE detection. All metacestode tissues were collected, and the total wet weight of metacestodes per mice was determined. Furthermore, the content of cytokines in microcyst fluid was detected by enzyme-linked immunosorbent assay (ELISA). Several metacestode tissue specimens were processed for transmission electron microscopy (TEM) and histopathological experiments.
ELISA was employed to detect serum IL-2, IL-4, IL-10 and IgE following the manufacturer's instructions. Mouse collagen I and collagen III ELISA kits were used to measure the levels of collagen I and collagen III in the cell culture supernatant after intervention with thiacloprid. All ELISA kits were provided by Elabscience Biotechnology Co., Ltd., Wuhan, China. The OD value at 450 nm was read with a Tecan Infinite M200 PRO enzyme reader (Männedorf, Switzerland), and the concentration was calculated according to the standard curve.

[3] = tested on: E. multilocularis metacestodes; assay: In vivo treatment of mice experimentally infected with E. multilocularis metacestodes; design: species or system Echinococcus multilocularis
Procedure: as §1
Tissues from experimental animals were washed in PBS and fixed in 4% paraformaldehyde at room temperature for […]. On the next day, they were dehydrated, embedded, and sliced into 5-μm sections. After dewaxing and dehydrating, sections were stained with hematoxylin for 2–5 min, and re-stained with eosin for 15 s. They were sealed with neutral gum and observed under a BX51 microscope (Olympus, Tokyo, Japan).
A Periodic Acid Schiff Stain Kit (Solarbio, Beijing, China) was used to show the PAS-positive laminated layer characteristic of E. multilocularis metacestodes. The section (5 μm) was dewaxed in xylene and rehydrated in 100%, 95%, 80%, and 75% alcohol baths. Staining was then carried out according to the kit instructions.

acetylcholinesterase = assay: Acetylcholinesterase activity (Ellman) in extracts of protoscoleces, metacestodes and germinal cells; assay type: biochemical, Echinococcus multilocularis; conditions: extract; thiacloprid 5 μM, 37 °C 10 min; BW284c51 positive control
Procedure: The effects of thiacloprid on the acetylcholinesterase activity of E. multilocularis protoscoleces, metacestodes and germinal cells were determined according to a previously described method. The protoscoleces, metacestode and germinal cells were washed twice with PBS and homogenized with an electric homogenizer in precooled PBS. Centrifugation of the homogenates was performed at 100,000×g for 30 min. The protein concentration of the supernatant was determined by the modified Lowry method according to the instructions, and the concentration was adjusted to 2 mg/ml. Thiacloprid (5 μM) was added to the extract and incubated at 37 °C for 10 min. The extract was supplemented with 0.1% DMSO as control. Subsequently, acetylcholinesterase activity was assessed according to Ellman’s procedure using a microplate with 260 µl of 0.1 M PBS buffer pH 8.0, 10 µl of 10 mM dithiobisnitrobenzoic acid solution, 2.5 µl of 75 mM substrate (acetylthiocholine iodide) and 25 µl of the sample treated with thiacloprid. The OD increment was measured at 412 nm using an Infinite M200 PRO reader (Tecan). Each experiment was conducted three times. BW284c51 (CAS number: 402-40-4, Sigma) was used as a positive control.

[4] = tested on: Human foreskin fibroblasts (HFF); assay: alamarBlue cytotoxicity assay, HFF; assay type: cell-based; conditions: Fibroblast, 120 h, 5 days
Procedure: (§2) An alamarBlue assay was used to assess the toxicity of thiacloprid to confluent and pre-confluent mammalian cells in vitro [29]. Human foreskin fibroblasts (HFF, Procell) and rat hepatoma cells (RH, Procell) were seeded into 96-well cell culture plates in DMEM supplemented with 10% FBS and 1% penicillin–streptomycin at 37 °C and 5% CO2. For detecting the growth inhibitory effects of confluent cells, HFF and RH cells were seeded at 10,000 cells per well and 50,000 cells per well, respectively. After overnight culture, thiacloprid or PZQ was added and diluted in serial concentrations (0, 0.6, 1.2, 2.5, 5, 10, 20, 40, 80 and 160 μM). For detecting growth inhibitory effects on proliferating cells, cells were seeded at 1000 (HFF) and 5000 (RH) cells per well. Thiacloprid was added after 5 h of cell attachment. To measure the viability of the cells after treatment for 5 days, the alamarBlue assay was employed and viability calculated as described previously.

[5] = tested on: E. multilocularis metacestodes; assay: PGI assay (phosphoglucose isomerase release) on metacestode vesicles; assay type: cell-based, Echinococcus multilocularis; conditions: Echinococcus multilocularis, 120 h, read-out: EC50 against E. multilocularis metacestode by the PGI assay
Procedure: The efficacy of thiacloprid against the E. multilocularis metacestode was evaluated by applying a phosphoglucose isomerase (PGI) assay that measures the release of the enzyme phosphoglucose isomerase upon physical impairment of metacestodes. In brief, medium without phenol red (DMEM, 1% penicillin/streptomycin sulfate, 2 mM L-glutamine) was added to the same volume of vesicles and distributed to 48-well (12–15 per vesicles) plates. Subsequently, metacestodes were incubated for 5 days with different concentrations (0, 0.06, 1.2, 2.5, 5, 10, 20, 40, 80 and 160 μM) of thiacloprid or praziquantel (PZQ), after which PGI release was quantified exactly as described in Stadelmann et al.. Triton X-100 (0.1% in PBS) was applied as a positive control (maximal release of vesicle fluid). Each condition was tested in biological triplicate. After 5 days of incubation, 200 μl medium supernatant was collected from each well and stored at − 20 °C until further measurements were performed. PGI measurements were performed as described earlier, except that an Infinite M200 PRO reader (Tecan, Männedorf, Switzerland) was used to measure the increase in absorbance at 340 nm. PGI activity was calculated using the EC50 calculator (https://www.aatbio.com/tools/ec50-calculator) from the linear regression of the enzyme reaction over time and presented as a percentage relative to the values obtained by treatment of vesicles with 0.1% Triton X-100.

[6] = tested on: E. multilocularis germinal cells; assay: CellTiter-Glo viability assay on germinal cells; assay type: cell-based, Echinococcus multilocularis; conditions: Echinococcus multilocularis, 120 h; 5 days; CellTiter-Glo; read-out: IC50 against germinal cells
Procedure: To evaluate the activity of thiacloprid against parasitic stem cells, germinal cells from in vitro metacestode vesicles were investigated as described by Spiliotis et al.. Briefly, 20 units of cells were distributed into a black 384-well plate. Different concentrations of thiacloprid or PZQ (0, 0.06, 1.2, 2.5, 5, 10, 20, 40, 80 and 160 μM) were added to the cells. After culture at 37 °C for 5 days under a humid nitrogen atmosphere, 25 μl CellTiter-Glo containing 1% Triton X-100 was added. The plates were incubated at room temperature in the dark for 15 min. After the total destruction of the cellular aggregates, luminescence was measured using an Infinite M200 PRO reader (Tecan), and 0 μM values were set to 100% viability. The IC50 values were calculated using an online IC50 calculator after logit-log transformation. Four independent replicates were conducted.

[7] = tested on: Reuber rat hepatoma (RH) cells; assay: alamarBlue cytotoxicity assay, RH cells; assay type: cell-based; conditions: 120 h, 5 days
Procedure: as §2

SMILES: CCCSc1ccc2nc(NC(=O)OC)[nH]c2c1 [ABZ, albendazole]
- Collagen fiber deposition in the host-lesion microenvironment (TEM) [1]: can promote
- mRNA expression of MMP1, MMP3, MMP9 and MMP13 in the microenvironment ([1]; qPCR): significantly inhibited
- mRNA and protein expression levels of collagen I and III in the host-lesion microenvironment ([1]; qPCR, western blot): increased
- Protein expression levels of MMP1, MMP3, MMP9 and MMP13 ([1]; western blot): decreased
- Expression of IL-2, IL-4 and IL-10 in serum compared with the untreated group [2]: consistent variations
- Expression of IgE in serum compared with the untreated group [2]: consistent variations
- HE staining of metacestodes from treated mice ([3]; 6 weeks oral treatment, thiacloprid 15 or 30 mg/kg/day, ABZ 100 mg/kg/day): germinal cells could still be observed
- Wet weight of the metacestodes ([3]; infected BALB/c mice, ABZ 100 mg/kg/day orally, 6 weeks, untreated 6.49 ± 1.18 g): 1.85 ± 0.94 g

SMILES: C=CC[N+](C)(C)c1ccc(CCC(=O)CCc2ccc([N+](C)(C)CC=C)cc2)cc1.[Br-].[Br-] [BW284c51]
- Acetylcholinesterase activity in protoscoleces, metacestode vesicles and germinal cells (acetylcholinesterase): inhibited

SMILES: O=C(C1CCCCC1)N1CC(=O)N2CCc3ccccc3C2C1 (stereo not drawn) [PZQ, praziquantel]
- IC50 ([4]; confluent cells, read-out: IC50 on confluent HFF): 53.2 ± 11.1 µM
- IC50 ([4]; pre-confluent cells, read-out: IC50 on pre-confluent HFF): 6.71 ± 1.88 µM
- EC50 [5]: 7.41 ± 2.09 µM
- IC50 [6]: 2.59 ± 0.33 µM
- IC50 ([7]; confluent cells, read-out: IC50 on confluent RH cells): 25.3 ± 6.32 µM
- IC50 ([7]; pre-confluent cells, read-out: IC50 on pre-confluent RH cells): 11.6 ± 3.52 µM
